Source: patent US20250099684A1, “HYDROGEN PEROXIDE SOLUTION-PREFILLED SYRINGE WITH EXCELLENT HYDROGEN PEROXIDE PRESERVATION DUE TO SILICONE OIL INCLUDED IN OIL COMPOSITION” (KORTUC Inc., priority 2019, published 2025)
Read-outs that look alike come from different tables or passages of the source.

Details: sealed, stored at 60° C. for 4 weeks, Oxydol "KENEI" 2.5 to 3.5% (w/v) hydrogen peroxide

residual ratio of hydrogen peroxide (glass container coated with the silicone oil (Dow Corning 360 Medical Fluid, 12,500 cSt)): ≥ 78% | residual ratio of hydrogen peroxide (glass container not coated with the silicone oil): about 70%
SMILES: OO [hydrogen peroxide]
